{
  "source": "patent US20260224675A1",
  "about": "“METHOD OF INHIBITING DEGRADING PROTEASE ACTIVITY IN THE SKIN” (The Regents of the University of California, priority 2023, published 2026)",
  "type_in_all_cases": "in vivo",
  "key": {"pancreatic trypsin [1]": {"system": "pancreatic trypsin", "test": "Pancreatic trypsin accumulation in rat small intestine, immunohistochemistry", "conditions": "old rats, oral, two weeks; increase in old vs young rats", "from_the_text": "(§1) Male Wistar rats (Harlan Sprague Dawley Inc., Indianapolis, IN) at maturity (4 months, 300 to 350 gm) and old age (24 months, 375 to 450 gm) were included in the study. The animals were maintained on standard laboratory chow (8604 Teklad rodent diet; Harlan Laboratories, Indianapolis, IN) without restriction and water ad libitum and maintained in separated room without pathogen-free conditions. […] A subgroup of old animals was given over two weeks a pancreatic serine protease (trypsin) inhibitor (tranexamic acid, 14 days) in drinking water (137 mM, exchanged daily) which at a minimum fluid consumption of 40 ml/day amounts to a minimum dose of 0.39 gm/kg/day for 350 gm body weight.\n(§2) Small intestine: Full thickness tissue blocks of the wall of proximal jejunum (3 by 5 mm) were fixed from all sides in 10% formaldehyde. Pancreatic trypsin and amylase were detected with primary (MoAb (D-1) and MoAb (G-10), respectively), and secondary antibodies labeled with DAB (Peroxidase Substrate Kit, ab64238, ABCAM).\n(§3) Images of the immunolabel density were recorded from low power overviews of the tissue (10× objective, numerical aperture 0.25) under standard light conditions. Images were digitally analyzed to minimize operator error (NIH Image, 1.61, public domain software, spatial resolution of 640×480 pixel). […]"}, "pancreatic trypsin [2]": {"system": "pancreatic trypsin", "test": "Pancreatic trypsin accumulation in rat skin tissue, immunohistochemistry", "conditions": "old rats, two weeks", "from_the_text": "as §1, with “weight. […]” for “weight.”\nTo determine on the tissue sections the immunolabel density and distribution of pancreatic serine proteases, pancreatic trypsin MoAb (D-1): sc-137077(Santa Cruz) primary antibody was used, followed by secondary antibodies (MP-7601 for anti-rabbit IgG; MP-7602 for anti-mouse IgG; ImmPRESS Excel staining kit peroxidase). […] No counterstain was applied to facilitate quantitative label intensity measurements and since cellular and vascular structures are readily identified. […] All procedures were carried out under standardized conditions to permit quantitative comparison of label densities. […]"}, "amylase": {"system": "amylase", "test": "Pancreatic amylase accumulation in rat small intestine, immunohistochemistry", "conditions": "old rats, oral, two weeks; increase in old vs young rats", "from_the_text": "as §1, §2, §3"}, "collagen": {"system": "collagen", "test": "Rat skin tissue collagen fragmentation, collagen hybridizing peptide (B-CHP) labeling", "conditions": "old rats, two weeks", "from_the_text": "as §1, with “weight. […]” for “weight.”\nTissue sections were stained with B-CHP (stock solution, 150 mM; final applied solution 7.5. mM). […] The B-CHP label intensity on the sections was recorded by digital microscopy.\n(§4) Images of the immunolabel density were recorded from low power overviews of the tissue (10× objective, numerical aperture 0.25) under standard light conditions. Images were digitally analyzed to minimize operator error (NIH Image, 1.61, public domain software, spatial resolution of 640×480 pixel).\nThe intensity of the immune substrate label was measured after color extraction in form of light intensity (1 corresponding to white, 256 corresponding to black). […]"}, "[3]": {"system": "mucin coat in the small intestine", "test": "Mucin coat in rat small intestine, alcian blue labeling", "conditions": "old rats (104 weeks), oral in drinking water, two weeks, vs old non-treated", "from_the_text": "as §1, with “weight. […]” for “weight.”\nas §4\nThe intensity of the immune substrate label was measured after color extraction in form of light intensity (1 corresponding to white, 256 corresponding to black). The mean label density per group (with 3 animals per group) was determined from the average label density per animal (determined from 5 tissue sections/animal, 30 images/section)."}},
  "data": [
    {"molecule": "NC[C@H]1CC[C@H](C(=O)O)CC1", "note": "[tranexamic acid]", "values": [
      {"measurement": "pancreatic trypsin label density in the small intestine", "setting": "pancreatic trypsin [1]", "result": "attenuated"},
      {"measurement": "pancreatic trypsin accumulation in skin tissue", "setting": "pancreatic trypsin [2]", "result": "prevents trypsin accumulation"},
      {"measurement": "amylase label density in the small intestine", "setting": "amylase", "result": "attenuated"},
      {"measurement": "collagen fragmentation in skin tissue (CHP)", "setting": "collagen", "result": "prevents collagen fragmentation"},
      {"measurement": "mucin coat in the small intestine (alcian blue label)", "setting": "[3]", "result": "restoration of the mucin coat"}
    ]}
  ]
}
